The target of test [1] is epi-isozizaene synthase (EIZS) (Streptomyces coelicolor, UniProt Q9K499, F198A). In words: X-ray crystal structure, […] Å. It counts as binding. As to conditions: complex with 3 Mg2+ and PPi; active site, alternative orientation.
The target in test [2] is T1, epi-isozizaene synthase (EIZS) (Streptomyces coelicolor, UniProt Q9K499).
T1 sequence (Q9K499 1-361): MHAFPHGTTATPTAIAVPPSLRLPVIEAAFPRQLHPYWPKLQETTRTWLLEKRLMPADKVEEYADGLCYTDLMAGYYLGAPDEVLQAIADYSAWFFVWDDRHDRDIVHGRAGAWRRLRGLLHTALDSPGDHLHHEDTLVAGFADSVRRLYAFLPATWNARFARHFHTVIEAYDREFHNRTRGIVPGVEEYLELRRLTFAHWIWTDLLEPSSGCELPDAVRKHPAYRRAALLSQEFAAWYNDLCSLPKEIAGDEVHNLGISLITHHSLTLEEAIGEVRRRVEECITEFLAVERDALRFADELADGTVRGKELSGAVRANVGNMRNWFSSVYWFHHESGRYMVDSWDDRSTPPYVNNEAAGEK
In words: X-ray crystal structure, […] Å. As to conditions: complex with 3 Mg2+ and BTAC; active site. It is filed as binding.

Chain of epi-isozizaene synthase (EIZS) (Streptomyces coelicolor, UniProt Q9K499, F198A) (Q9K499 whole entry F198A): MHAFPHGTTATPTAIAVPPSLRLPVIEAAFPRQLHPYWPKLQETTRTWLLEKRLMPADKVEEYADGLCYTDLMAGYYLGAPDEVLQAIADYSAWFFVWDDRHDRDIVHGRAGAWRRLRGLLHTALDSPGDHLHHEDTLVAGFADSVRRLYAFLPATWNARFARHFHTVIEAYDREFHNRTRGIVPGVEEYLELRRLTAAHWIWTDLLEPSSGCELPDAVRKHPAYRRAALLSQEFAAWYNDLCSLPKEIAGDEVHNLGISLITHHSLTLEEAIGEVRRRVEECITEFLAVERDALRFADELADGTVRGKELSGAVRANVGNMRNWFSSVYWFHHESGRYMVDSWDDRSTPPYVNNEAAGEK

Take `CC[N+](CC)(CC)Cc1ccccc1` [BTAC, benzyltriethylammonium cation]: the “X-ray crystal structure, 1.64 Å” value in test [1] is recorded as “the BTAC molecule occupies an alternative position”.
For `O=P(O)(O)OP(=O)(O)O` [PPi, inorganic pyrophosphate], the “X-ray crystal structure, 1.60 Å” value in test [2] is on record as “The PPi anion also accepts hydrogen bonds from the side chains of R194, K247”.

These data come from publication PMC2840623 (Biochemistry, 2010).
